Reference: PMC12622164, “Endothelial CYB5R1 is a Coenzyme Q reductase that suppresses ferroptosis and atherosclerosis” (Research Square, 2025)

Molecular target: T1, recombinant CYB5R1 (Δ1–29) (Homo sapiens, UniProt Q9UHQ9)
T1 construct: soluble form lacking first 29 residues (membrane anchor); His6-SUMO (Smt3) fusion cleaved by Ulp1; E. coli SoluBL21
T1 sequence (Q9UHQ9 30-305): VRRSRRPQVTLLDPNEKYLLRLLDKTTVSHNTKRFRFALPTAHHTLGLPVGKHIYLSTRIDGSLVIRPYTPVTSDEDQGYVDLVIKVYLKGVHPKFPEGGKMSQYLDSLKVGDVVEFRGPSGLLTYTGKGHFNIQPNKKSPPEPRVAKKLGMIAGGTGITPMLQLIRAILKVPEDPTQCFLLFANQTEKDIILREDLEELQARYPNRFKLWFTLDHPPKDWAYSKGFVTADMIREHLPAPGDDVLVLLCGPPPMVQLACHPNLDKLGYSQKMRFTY
Assay: NADH consumption at […] nm
Type: biochemical
Conditions: 200 uM CoQ0; 500 uM NADH; 100 mM Tris-HCl pH 7.4; no CYB5B

For `COC1=C(OC)C(=O)C(C)=CC1=O` [CoQ0, 2,3-dimethoxy-5-methyl-1,4-benzoquinone], the “NADH consumption at 340 nm” value was “recombinant CYB5R1 readily reduced CoQ0, a water-soluble derivative of CoQ10”.
